Experiments:
HEK 293 cells = conditions: HEK 293, 1 hour incubation
SF9 cells = test: Cell lysis, percent cell viability by Vi-Cell (trypan blue exclusion); type: cell-based, insect; conditions: SF9, 1 hour incubation
Description: The cell rupture solution was tested both for HEK 293 and SF9 cell lines. The cell concentration was >5×10^6 cells/ml. A cell harvest in cell culture media was spiked with the concentrated stock of cell rupture solution to reach a final cell rupture solution concentration ranging from 0% to 0.5% and was incubated for about 5 minutes to about 1 hour at 15° C. to 30° C. The concentration of the stock solution could be 1-500-fold higher than the target concentration. After the incubation period, cell viability of cells was analyzed by a Vi-Cell reader.
SF9 cells for the study were grown in SF-900 II SFM (Invitrogen/Gibco 10902) media in a non-vented non-baffled shake flask. The incubator was set at 27° C. and 125 rpm.
For the cell lysis study, 2 mL of cells were added to each of 10×15 mL tubes under a sterile biosafety cabinet. Each tube was spiked with 0% (control, no detergent), 0.0025%, 0.005%, 0.0075%, 0.01%, 0.02%, 0.05%, 0.1%, 0.25%, and 0.5% of cell rupture solution using a concentrated stock. Cell counts and percent cell viability were determined at 15 min, 30 min, and 1 hour time points for each sample using the ViCell cell viability analyzer.
Cell viability was assessed by a Vi-Cell XR using trypan blue exclusion staining. […]

[1] = reference [6]; cited from earlier work

Substance: Octoxynol-9 [Triton X-100]
- detergent concentration at which cell lysis was complete (HEK 293 cells): 0.05%
- detergent concentration at which cell lysis was complete (SF9 cells): 0.05%
- toxicity reported by research [1]: acute oral toxicity, eye damage, skin irritation, and chronic aquatic toxicity

Reference: US20250197794A1, “MEMBRANE RUPTURE COMPOSITIONS AND METHODS OF MAKING AND USING SAME” (priority 2020, published 2025)
